Values quoted from earlier work as cited in US7658956B2, “Erectile dysfunction phyto-nutraceutical synergistic composition” (priority 2006, dated 2010).

Tests used:
[1] = test system: bacterial resistance mechanism (multidrug pump)
[2] = test system: rabbit corpus cavernosum
[3] = test system: asthenospermic patients
[4] = test system: spermatozoa; conditions: in vitro
[5] = test system: patients with erectile dysfunction; conditions: 30 patients per group

In the case of `COc1cc([C@H]2Oc3cc(-c4cc(=O)c5c(O)cc(O)cc5o4)cc(OC)c3O[C@@H]2CO)ccc1O` (racemic) [5′-MHC, 5′-methoxyhydnocarpin], the “accumulation of berberine in the cells” value ([1]; in the presence of 5′-MHC) is listed as “strong increase” and the “activity of herbal Berberine alkaloids under the action of 5′-MHC” value ([1]; in vitro) is listed as “strongly potentiated”.

For `C[C@H](CC[C@@]1(O)O[C@H]2C[C@H]3[C@@H]4CC=C5C[C@@H](O[C@@H]6O[C@H](CO)[C@@H](O[C@@H]7O[C@@H](C)[C@H](O)[C@@H](O)[C@H]7O)[C@H](O)[C@H]6O[C@@H]6O[C@@H](C)[C@H](O)[C@@H](O)[C@H]6O)CC[C@]5(C)[C@H]4CC[C@]3(C)[C@H]2[C@@H]1C)CO[C@@H]1O[C@H](CO)[C@@H](O)[C@H](O)[C@H]1O` [Protodioscin], the “pro-erectile activity (relaxant effect)” value [2] is given as “pro-erectile activity”.

For Vitamin E, the “treated patients who impregnated their spouses” value ([3]; Eleven out of 52 treated patients) is listed as 21%, the “MDA concentration in spermatozoa” value ([3]; oral, asthenospermic patients) is listed as “significantly decreased” and the sperm motility ([3]; oral, asthenospermic patients) is listed as “improved sperm motility”. For the same compound, the “ROS mediated damage on spermatozoa” value [4] was “protects against ROS mediated damage”.

For `O=c1n(CCCN2CCN(c3cccc(Cl)c3)CC2)nc2ccccn12` [trazodone], the “overall therapeutic efficacies on erectile dysfunction” value [5] is listed as 30%.
